Data taken from patent US8598183B2, “Solid state forms of a potent HCV inhibitor” (Boehringer Ingelheim International GmbH, priority 2010, dated 2013).

Tests used:
[1] = Powder dissolution of triturated mixtures in capsules in 500 mL pH 6.8 buffer; assay type: physicochemical; settings: for % Release, Average of n = 2 (range) / % Release, average / % Release / % Release, average (range): capsule; for % Release, average: 200 mg drug + Meglumine 100 mg; for % Release: 200 mg drug + Pluronic acid 100 mg, n = 1
From the text: One class of solubilizer excipients, basifiers, act by increasing the microenvironment pH and thereby increasing the local solubility of the drug (for a drug containing an acid moiety). Another class of solubilizer excipients, surfactants, also act by increasing the local solubility of the drug. […] For example, an enhancement in dissolution was obtained when surfactants, for example, sodium lauryl sulfate or Vitamin E TPGS, were used in combination with basifiers, for example, L-arginine, meglumine or L-lysine. […] For example, only 1% drug release was obtained when Compound (1) sodium salt crystalline was present. The % drug release was 54% at 60 minutes in the presence of 100 mg Arginine alone and 59% in the presence of Sodium lauryl sulfate alone (Table 2). However, in presence of 100 mg of Arginine along with 100 mg of Sodium lauryl sulfate, the % drug release increased to 93% at 60 minutes (Table 3) indicating enhancement in dissolution when both surfactant and basifier were used in combination.

[2] = Solubility of Compound (1) in physiological pH range; thermodynamic solubility; assay type: physicochemical
Description: Doses of Compound (1) up to 400 to 600 mg per dose may be required to be delivered to obtain exposures necessary for sufficient efficacy in vivo. Based on thermodynamic solubility of Compound (1), solubility of 0.005-0.01 mg/ml is estimated for Compound (1) sodium salt.

Cn1c(C2(NC(=O)c3ccc4c(C5CCCC5)c(-c5ncc(Br)cn5)n(C)c4c3)CCC2)nc2ccc(/C=C/C(=O)[O-])cc21.[Na+] [Compound (1) sodium salt]
% Release, Average of n = 2 (range) ([1]; 200 mg drug + Lysine + SDS (100 mg + 100 mg), 90 min): 85 (84-85) %
% Release, Average of n = 2 (range) ([1]; 200 mg drug + Lysine + VitE TPGS (40 mg + 20 mg), 15 min): 37 (33-41) %
% Release, Average of n = 2 (range) ([1]; 200 mg drug + Lysine + VitE TPGS (40 mg + 20 mg), 30 min): 69 (69-70) %
% Release, Average of n = 2 (range) ([1]; 200 mg drug + Lysine + VitE TPGS (40 mg + 20 mg), 60 min): 71 (70-72) %
% Release, Average of n = 2 (range) ([1]; 200 mg drug + Lysine + VitE TPGS (100 mg + 100 mg), 15 min): 42 (29-55) %
% Release, Average of n = 2 (range) ([1]; 200 mg drug + Lysine + VitE TPGS (100 mg + 100 mg), 30 min): 79 (77-81) %
% Release, Average of n = 2 (range) ([1]; 200 mg drug + Lysine + VitE TPGS (100 mg + 100 mg), 60 min): 83 (82-83) %
% Release, Average of n = 2 (range) ([1]; 200 mg drug + Lysine + VitE TPGS (100 mg + 100 mg), 90 min): 81 (81-82) %
% Release, average ([1]; 90 (infinity), n = 2): 49%
% Release, average ([1]; 15 min, n = 2): 47%
% Release, average ([1]; 30 min, n = 2): 48%
% Release, average ([1]; 60 min, n = 2): 48%
% Release, Average of n = 2 (range) ([1]; 200 mg drug + Meglumine + SDS (40 mg + 20 mg), 15 min): 66 (61-71) %
% Release, Average of n = 2 (range) ([1]; 200 mg drug + Meglumine + SDS (40 mg + 20 mg), 30 min): 73 (71-75) %
% Release, Average of n = 2 (range) ([1]; 200 mg drug + Meglumine + SDS (40 mg + 20 mg), 60 min): 70 (69-71) %
% Release, Average of n = 2 (range) ([1]; 200 mg drug + Meglumine + SDS (40 mg + 20 mg), 90 min): 68 (67-69) %
% Release, Average of n = 2 (range) ([1]; 200 mg drug + Meglumine + SDS (100 mg + 100 mg), 15 min): 81 (79-83) %
% Release, Average of n = 2 (range) ([1]; 200 mg drug + Meglumine + SDS (100 mg + 100 mg), 30 min): 87 (86-88) %
% Release, Average of n = 2 (range) ([1]; 200 mg drug + Meglumine + SDS (100 mg + 100 mg), 60 min): 83 (80-87) %
% Release, Average of n = 2 (range) ([1]; 200 mg drug + Meglumine + SDS (100 mg + 100 mg), 90 min): 86 (85-87) %
% Release, Average of n = 2 (range) ([1]; 200 mg drug + Meglumine + VitE TPGS (40 mg + 20 mg), 15 min): 52 (33-70) %
% Release, Average of n = 2 (range) ([1]; 200 mg drug + Meglumine + VitE TPGS (40 mg + 20 mg), 30 min): 73 (73-73) %
% Release, Average of n = 2 (range) ([1]; 200 mg drug + Meglumine + VitE TPGS (40 mg + 20 mg), 60 min): 73 (73-74) %
% Release, Average of n = 2 (range) ([1]; 200 mg drug + Meglumine + VitE TPGS (40 mg + 20 mg), 90 min): 71 (70-72) %
% Release, Average of n = 2 (range) ([1]; 200 mg drug + Meglumine + VitE TPGS (100 mg + 100 mg), 15 min): 81 (81-81) %
% Release, Average of n = 2 (range) ([1]; 200 mg drug + Meglumine + VitE TPGS (100 mg + 100 mg), 30 min): 85 (84-86) %
% Release, Average of n = 2 (range) ([1]; 200 mg drug + Meglumine + VitE TPGS (100 mg + 100 mg), 60 min): 86 (84-87) %
% Release, Average of n = 2 (range) ([1]; 200 mg drug + Meglumine + VitE TPGS (100 mg + 100 mg), 90 min): 82 (80-84) %
% Release ([1]; 90 (infinity)): 13%
% Release ([1]; 15 min): 3%
% Release ([1]; 30 min): 12%
% Release ([1]; 60 min): 12%
% Release, average (range) ([1]; 200 mg drug + SDS 100 mg, 90 (infinity), n = 2): 49 (45-53) %
% Release, average (range) ([1]; 200 mg drug + SDS 100 mg, 15 min, n = 2): 57 (56-57) %
% Release, average (range) ([1]; 200 mg drug + SDS 100 mg, 30 min, n = 2): 61 (60-63) %
% Release, average (range) ([1]; 200 mg drug + SDS 100 mg, 60 min, n = 2, listed as Compound (1) Na Salt): 59 (58-60) %
% Release, average (range) ([1]; 200 mg drug + SDS 100 mg, 60 min, n = 2, listed as Compound (1) sodium salt crystalline): 59%
% Release, average (range) ([1]; 200 mg drug + Tris 100 mg, 90 (infinity), n = 3): 41 (33-46) %
% Release, average (range) ([1]; 200 mg drug + Tris 100 mg, 15 min, n = 3): 40 (34-43) %
% Release, average (range) ([1]; 200 mg drug + Tris 100 mg, 60 min, n = 3): 44 (35-48) %
% Release, average (range) ([1]; 200 mg drug + Vit E TPGS 100 mg, 90 (infinity), n = 2): 27 (27-27) %
% Release, average (range) ([1]; 200 mg drug + Vit E TPGS 100 mg, 15 min, n = 2): 24 (24-24) %
% Release, average (range) ([1]; 200 mg drug + Vit E TPGS 100 mg, 30 min, n = 2): 27 (27-27) %
% Release, average (range) ([1]; 200 mg drug + Vit E TPGS 100 mg, 60 min, n = 2): 27 (27-27) %
% Release, average (range) ([1]; Drug alone 200 mg, 90 (infinity), n = 2): 1 (1-2) %
% Release, average (range) ([1]; Drug alone 200 mg, 15 min, n = 2): 1 (1-1) %
% Release, average (range) ([1]; Drug alone 200 mg, 30 min, n = 2): 1 (1-1) %
% Release, average (range) ([1]; Drug alone 200 mg, 60 min, n = 2): 1 (1-2) %
% drug release ([1]; drug alone, no basifier or surfactant, time not stated): 1%
solubility estimated based on thermodynamic solubility of Compound (1) [2]: 5 to 10 µg/mL
